PubChem BioAssay AID1963835 (Molecular Pharmacology Branch, DTP, NCI, 2024)

Tested on: 699152-130-R-J1-PDC complex spheroid viability
Assay: Anticancer human tumor 699152-130-R-J1-PDC patient-derived pancreatic carcinoma cell line growth inhibition [POLQ]
Conditions: for IC50: curve of first compound; for viability, T/C: stronger effect = lower value; active means viability on the fitted dose curve at most 10% of control; inactive means the rest
Summary of the method: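 Complex spheroid viability model combining PDC tumour cells with endothelial (HUVEC) and MSC stromal cells. Novobiocin, ART-558 or RP6685 were tested singly and in combination with standard and investigational anticancer drugs. Each was titrated in half-log steps from near clinical Cmax, or from 10 microM where Cmax was unknown.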

[1] = second compound 0.0316 µM, first compound 0.0316 µM
[2] = second compound 0.0316 µM, first compound 0.1 µM
[3] = second compound 0.0316 µM, first compound 0.316 µM
[4] = second compound 0.0316 µM, first compound 1 µM
[5] = second compound 0.0316 µM, first compound 3.16 µM
[6] = second compound 0.0316 µM, first compound 10 µM
[7] = second compound 0.1 µM, first compound 0.0316 µM
[8] = second compound 0.1 µM, first compound 0.1 µM
[9] = second compound 0.1 µM, first compound 0.316 µM
[10] = second compound 0.1 µM, first compound 1 µM
[11] = second compound 0.1 µM, first compound 3.16 µM
[12] = second compound 0.1 µM, first compound 10 µM
[13] = second compound 0.316 µM, first compound 0.0316 µM
[14] = second compound 0.316 µM, first compound 0.1 µM
[15] = second compound 0.316 µM, first compound 0.316 µM
[16] = second compound 0.316 µM, first compound 1 µM
[17] = second compound 0.316 µM, first compound 3.16 µM
[18] = second compound 0.316 µM, first compound 10 µM
[19] = second compound 1 µM, first compound 0.0316 µM
[20] = second compound 1 µM, first compound 0.1 µM
[21] = second compound 1 µM, first compound 0.316 µM
[22] = second compound 1 µM, first compound 1 µM
[23] = second compound 1 µM, first compound 3.16 µM
[24] = second compound 1 µM, first compound 10 µM
[25] = second compound 3.16 µM, first compound 0.0316 µM
[26] = second compound 3.16 µM, first compound 0.1 µM
[27] = second compound 3.16 µM, first compound 0.316 µM
[28] = second compound 3.16 µM, first compound 1 µM
[29] = second compound 3.16 µM, first compound 3.16 µM
[30] = second compound 3.16 µM, first compound 10 µM
[31] = second compound 10 µM, first compound 0.0316 µM
[32] = second compound 10 µM, first compound 0.1 µM
[33] = second compound 10 µM, first compound 0.316 µM
[34] = second compound 10 µM, first compound 1 µM
[35] = second compound 10 µM, first compound 3.16 µM
[36] = second compound 10 µM, first compound 10 µM
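Further: spheroids exposed to agents for 7 days before viability reading.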
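Wherever viability, T/C is given: percent of DMSO vehicle control viability so 100% = vehicle and 0% = no viable signal.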

Nc1ccn(C2OC(CO)C(O)C2(F)F)c(=O)n1 (stereo not drawn) + COC1C(OC(N)=O)C(O)C(Oc2ccc3c(O)c(NC(=O)c4ccc(O)c(CC=C(C)C)c4)c(=O)oc3c2C)OC1(C)C
inactive: viability, T/C [1] 68.1% | viability, T/C [2] 52.2% | viability, T/C [3] 42.9% | viability, T/C [4] 48.3% | viability, T/C [5] 39% | viability, T/C [6] 31.2% | viability, T/C [7] 73.5% | viability, T/C [8] 56.1% | viability, T/C [9] 48.7% | viability, T/C [10] 44.8% | viability, T/C [11] 35.4% | viability, T/C [12] 34.3% | viability, T/C [13] 64.4% | viability, T/C [14] 56.6% | viability, T/C [15] 49.7% | viability, T/C [16] 44.4% | viability, T/C [17] 46.4% | viability, T/C [18] 35.4% | viability, T/C [19] 70% | viability, T/C [20] 51.5% | viability, T/C [21] 53.3% | viability, T/C [22] 45.1% | viability, T/C [23] 43.2% | viability, T/C [24] 40.1% | viability, T/C [25] 61.7% | viability, T/C [26] 55.6% | viability, T/C [27] 51.4% | viability, T/C [28] 51.5% | viability, T/C [29] 37.1% | viability, T/C [30] 40.8% | viability, T/C [31] 72.1% | viability, T/C [32] 56.7% | viability, T/C [33] 54.8% | viability, T/C [34] 51.3% | viability, T/C [35] 44.1% | viability, T/C [36] 38%
0.376 µM: IC50 (second compound 0.316 µM)
0.262 µM: IC50 (second compound 0.1 µM)
0.202 µM: IC50 (second compound 0.0316 µM)
0.765 µM: IC50 (second compound 10 µM)
0.475 µM: IC50 (second compound 3.16 µM)
0.264 µM: IC50 (second compound 1 µM)

C=CCn1c(=O)c2cnc(Nc3ccc(N4CCN(C)CC4)cc3)nc2n1-c1cccc(C(C)(C)O)n1 + Cc1cccc(N(C)C(=O)C2C(O)CCN2c2nc(C)cc(C(F)(F)F)c2C#N)c1
> 1 µM: IC50 (second compound 0.0316 µM) | IC50 (second compound 0.1 µM) | IC50 (second compound 0.316 µM) | IC50 (second compound 1 µM) | IC50 (second compound 3.16 µM) | IC50 (second compound 10 µM)
inactive: viability, T/C (second compound 0.0316 µM, first compound 0.00316 µM) 94.8% | viability, T/C (second compound 0.0316 µM, first compound 0.01 µM) 91% | viability, T/C [1] 87.4% | viability, T/C [2] 86.9% | viability, T/C [3] 80.3% | viability, T/C [4] 73% | viability, T/C (second compound 0.1 µM, first compound 0.00316 µM) 87.9% | viability, T/C (second compound 0.1 µM, first compound 0.01 µM) 90.2% | viability, T/C [7] 95.6% | viability, T/C [8] 83.9% | viability, T/C [9] 82.2% | viability, T/C [10] 68.7% | viability, T/C (second compound 0.316 µM, first compound 0.00316 µM) 88.8% | viability, T/C (second compound 0.316 µM, first compound 0.01 µM) 91.4% | viability, T/C [13] 89.4% | viability, T/C [14] 82.7% | viability, T/C [15] 85.4% | viability, T/C [16] 69.8% | viability, T/C (second compound 1 µM, first compound 0.00316 µM) 96.5% | viability, T/C (second compound 1 µM, first compound 0.01 µM) 85.2% | viability, T/C [19] 102% | viability, T/C [20] 84% | viability, T/C [21] 80.2% | viability, T/C [22] 67% | viability, T/C (second compound 3.16 µM, first compound 0.00316 µM) 83.3% | viability, T/C (second compound 3.16 µM, first compound 0.01 µM) 107% | viability, T/C [25] 97.6% | viability, T/C [26] 99.2% | viability, T/C [27] 81.7% | viability, T/C [28] 65.4% | viability, T/C (second compound 10 µM, first compound 0.00316 µM) 84.8% | viability, T/C (second compound 10 µM, first compound 0.01 µM) 89.3% | viability, T/C [31] 89.2% | viability, T/C [32] 86.7% | viability, T/C [33] 78.1% | viability, T/C [34] 73.9%

CC1COCCN1c1cc(-c2ccnn2C)c2ccnc(-c3ccn[nH]3)c2n1 (stereo not drawn) + Nc1ccc(C#CCN(C(=O)Cc2ncc(C(F)(F)F)cc2C(F)(F)F)c2ccc(F)cc2)nn1
> 10 µM: IC50 (second compound 0.0316 µM) | IC50 (second compound 0.1 µM) | IC50 (second compound 0.316 µM) | IC50 (second compound 3.16 µM) | IC50 (second compound 10 µM)
inactive: viability, T/C [1] 88.4% | viability, T/C [2] 91.3% | viability, T/C [3] 80.4% | viability, T/C [4] 63.5% | viability, T/C [5] 52.9% | viability, T/C [6] 50% | viability, T/C [7] 90.9% | viability, T/C [8] 89% | viability, T/C [9] 75.4% | viability, T/C [10] 66.6% | viability, T/C [11] 52.8% | viability, T/C [12] 53.3% | viability, T/C [13] 102% | viability, T/C [14] 90.6% | viability, T/C [15] 75.4% | viability, T/C [16] 58.9% | viability, T/C [17] 48.5% | viability, T/C [18] 53.9% | viability, T/C [19] 101% | viability, T/C [20] 82.8% | viability, T/C [21] 71.4% | viability, T/C [22] 58% | viability, T/C [23] 52.2% | viability, T/C [24] 49.2% | viability, T/C [25] 107% | viability, T/C [26] 92.7% | viability, T/C [27] 75.6% | viability, T/C [28] 55.3% | viability, T/C [29] 47.2% | viability, T/C [30] 57% | viability, T/C [31] 114% | viability, T/C [32] 94.3% | viability, T/C [33] 80.9% | viability, T/C [34] 58% | viability, T/C [35] 64.5% | viability, T/C [36] 49.9%
6.83 µM: IC50 (second compound 1 µM)

CCc1cc2c(N3CCc4c(cc(Cn5ccnc5)cc4-c4cn(C)nc4C(F)(F)F)C3=O)ccnc2c(OC)n1 + COC1C(OC(N)=O)C(O)C(Oc2ccc3c(O)c(NC(=O)c4ccc(O)c(CC=C(C)C)c4)c(=O)oc3c2C)OC1(C)C
inactive: viability, T/C [1] 82.1% | viability, T/C [2] 102% | viability, T/C [3] 95.5% | viability, T/C [4] 107% | viability, T/C [5] 104% | viability, T/C [6] 97.3% | viability, T/C [7] 91.7% | viability, T/C [8] 89.8% | viability, T/C [9] 87.4% | viability, T/C [10] 87.6% | viability, T/C [11] 109% | viability, T/C [12] 96.4% | viability, T/C [13] 88.2% | viability, T/C [14] 89.8% | viability, T/C [15] 99.9% | viability, T/C [16] 99% | viability, T/C [17] 105% | viability, T/C [18] 97% | viability, T/C [19] 97.1% | viability, T/C [20] 85% | viability, T/C [21] 90.4% | viability, T/C [22] 112% | viability, T/C [23] 101% | viability, T/C [24] 91.9% | viability, T/C [25] 86.7% | viability, T/C [26] 91.4% | viability, T/C [27] 89.6% | viability, T/C [28] 96% | viability, T/C [29] 98.4% | viability, T/C [30] 93.9% | viability, T/C [31] 105% | viability, T/C [32] 80.6% | viability, T/C [33] 85.3% | viability, T/C [34] 101% | viability, T/C [35] 102% | viability, T/C [36] 101%
> 10 µM: IC50 (second compound 0.0316 µM) | IC50 (second compound 0.1 µM) | IC50 (second compound 0.316 µM) | IC50 (second compound 1 µM) | IC50 (second compound 3.16 µM) | IC50 (second compound 10 µM)
